# Measurements: PMC9687805 (Biomolecules, 2022)
# “And” between values parts separate entries of the source, which are not always exact repeats. Equal values may be shown once. Read-outs that look alike come from different tables or passages of the source.
# Columns and labels:
# [1] = ABTS radical cation scavenging activity assay; set-up: key to ABTS•+-scavenging activity, TEAC: ratio of slopes, tested compound vs Trolox (Trolox = 1); conditions: n=3, 1 h, 30 °C; for ABTS•+-scavenging activity, TEAC: Trolox equivalent antioxidant capacity, mean ± SEM; for IC50: concentration for 50% reduction of ABTS radical cation
# Procedure: Radical scavenging activity of the compounds was evaluated by the ABTS radical cation (ABTS^•+) scavenging assay showing the ability of the compounds to decolorize the ABTS^•+ solution [86] with some modifications. Trolox was used as the antioxidant standard; ascorbic acid was used as the comparison compound. All tested compounds and standards were dissolved in DMSO.
# The solution of ABTS^•+ was produced by mixing 7 mM ABTS aqueous solution with 2.45 mM potassium persulfate aqueous solution in equal quantities and allowing them to react for 12–16 h at room temperature in the dark. Radical scavenging capacity of the compounds was analyzed by mixing 10 µL of compound with 240 µL of ABTS^•+ working solution in ethanol (100 µM final concentration), and after 1 h of incubation at 30 °C the decrease in absorbance was measured spectrophotometrically at 734 nm using a Bio-Rad xMark microplate UV/VIS spectrophotometer (Bio-Rad, Hercules, CA, USA). The compounds were tested in the concentration range 5 × 10^−7–1 × 10^−4 M. Ethanol blanks were run in each assay. Values were obtained from five replicates of each sample and three independent experiments.
# Antioxidant activity was reported as Trolox equivalent antioxidant capacity (TEAC values), consisting of the ratio between the slopes obtained from the linear correlation for concentrations of the tested compounds and Trolox with absorbance of ABTS radical. […] The calculations were carried out using Origin 6.1 for Windows (OriginLab, Northampton, MA, USA). Results are presented as mean ± SEM calculated using GraphPad Prism version 6.05 for Windows, GraphPad Software (San Diego, CA, USA).
# Human erythrocyte AChE = target: T1, Human erythrocyte AChE (Homo sapiens, UniProt P22303); assay: biochemical; conditions: for inhibition at 20 µM: read-out: Inhibitory activity against AChE, % inhibition at 20 μM; for IC50: human erythrocyte AChE, 5 min incubation, 25 °C, pH 7.5, read-out: Inhibitory activity against AChE, IC50
# T1 construct: purchased Sigma-Aldrich; host or cells: human erythrocytes
# Procedure: (§1) The assay solution consisted of 0.1 M K/Na phosphate buffer pH 7.5, 25 °C, 0.33 mM DTNB, 0.02 unit/mL AChE or BChE, and 1 mM substrate (ATCh or BTCh, respectively). Reagent blanks consisted of reaction mixtures without substrates.
# (§2) Each experiment was performed in triplicate.
# equine serum BChE = target: T2, equine serum BChE (Equus caballus, UniProt P81908); assay: biochemical; conditions: mean ± SEM, n = 3; for IC50: equine serum BChE, 5 min incubation, 25 °C, pH 7.5, read-out: Inhibitory activity against BChE, IC50; for inhibition at 20 µM: read-out: Inhibitory activity against BChE, % inhibition at 20 μM, compound 20 μM, n.a. = not active
# T2 construct: purchased Sigma-Aldrich; host or cells: equine serum
# Procedure: as §1, §2
# [2] = Ferric reducing antioxidant power (FRAP) assay; conditions: Trolox equivalents; n=3, 1 h, 37 °C; mean ± SEM
# Procedure: The FRAP (Ferric Reducing Antioxidant Power) assay measures the ability of antioxidants to reduce the ferric 2,4,6-tripyridyl-s-triazine complex [Fe(TPTZ)2]^3+ to the intensely blue-colored ferrous complex [Fe(TPTZ)2]^2+ with an absorption maximum at λ = 593 nm. The reducing ability of a compound is an indicator of its potential antioxidant activity.
# The ferric reducing ability of the compounds was determined by a previously described method as a microplate-adapted version described in [42]. 2,4,6-tris(pyridin-2-yl)-1,3,5-triazine (TPTZ), FeCl3·6H2O, Trolox, ascorbic acid and DMSO were obtained from Sigma-Aldrich Chemical Co (St. Louis, MO, USA). The FRAP reagent was prepared by mixing acetate buffer (0.3 M, pH 3.6), TPTZ (10 mM in 40 mM HCl) and FeCl3·6H2O (20 mM in distilled water) in a ratio of 10:1:1 immediately before use. Compounds were dissolved in DMSO and tested in the concentration range of 1×10^−6–1×10^−4 M. The solvent content in the reaction mixture was 4% (v/v). The test compounds (10 µL) were added to the FRAP reagent solution (240 µL) and mixed thoroughly. The reaction was carried out at 37 °C in the dark, the incubation time was 1 h. The absorbance at 600 nm was monitored spectrophotometrically by a FLUOStar OPTIMA microplate reader (BMG Labtech, Germany) at 37 °C. Trolox was used as a standard antioxidant, ascorbic acid as a reference compound. Values were obtained from four replicates of each sample and three independent experiments.
# The ferric reducing ability of compounds was expressed as TE units (antioxidant activity in Trolox equivalent) with the values calculated as the ratio of the concentrations of Trolox and the test compound resulting in the same effect.
# porcine liver CES = assay: CES inhibition, 4-nitrophenyl acetate hydrolysis; conditions: compound 20 μM; mean ± SEM, n = 3; n.a. = not active
# Procedure: Final enzyme and substrate (4-nitrophenyl acetate) concentrations were 0.02 unit/mL and 1 mM, respectively. Assays were carried out with a blank containing all constituents except porcine CES to assess non-enzymatic hydrolysis. Measurements were performed with a FLUOStar Optima microplate reader (BMG Labtech, Ortenberg, Germany). Compounds were dissolved in DMSO; the incubation mixture contained 2% (v/v) solvent. The primary evaluation of the inhibitory activity of the compounds was performed by determining the degree of the enzyme inhibition at a compound concentration of 20 µM. For this, a sample of the corresponding enzyme was incubated with the test compound for 5 min; then the enzyme residual activity was determined. Each experiment was performed in triplicate. […] Substrate was then added and residual enzyme activity relative to an inhibitor-free control was measured using a FLUOStar Optima microplate reader.
# [3] = Metal-chelating properties by UV-Vis spectrometry in acetonitrile; assay type: physicochemical; conditions: compound 40 µM, metal 40 µM, 25 °C, red shift of absorbance
# Procedure: The complexing studies were made in acetonitrile at 25 °C using a UV–vis spectrophotometer Shimadzu UV-2600 (Shimadzu Corporation, Kyoto, Japan) with wavelength ranging from 190 to 600 nm. Solutions (200 µM in acetonitrile) of the following metals compounds were prepared in volumetric flasks: FeCl2·4H2O (99%, Acros Organics by Thermo Fisher Scientific (Kandel, Germany)), CuCl2 (98%, Alfa Aesar by Thermo Fisher Scientific (Kandel, Germany)), or Zn(NO3)2·6H2O (98%, Alfa Aesar by Thermo Fisher Scientific (Kandel, Germany). Solutions of the test compounds were also prepared in acetonitrile at 400 µM concentrations. To a mixture of 0.5 mL test compound solution (40 μM final concentration) and 3.5 mL acetonitrile, 1 mL of the metal solution (CuCl2, FeCl2·4H2O, or Zn(NO3)2·6H2O; 40 µM final concentration) was added. The solution was incubated at 25 °C for 30 min and then the absorption spectra were recorded at 25 °C in a 1 cm quartz cell. The control was prepared by mixing 0.5 mL tested compound solution and 4.5 mL acetonitrile.
# EeAChE PAS = target: T3, EeAChE PAS (Electrophorus electricus, UniProt O42275); assay: biochemical; assay type: binding; conditions: 0.25 h; compound 20 μM, EeAChE 7 μM, propidium iodide 8 μM; n.a. = not active; read-out: % Displacement of Propidium from the EeAChE PAS at 20 μM
# T3 construct: purchased Sigma-Aldrich type VI-S; host or cells: electric eel
# Procedure: Electrophorus electricus (EeAChE) (electric eel, type VI-S, lyophilized powder, Sigma-Aldrich, St. Louis, MO, USA) was used owing to its high degree of purification, high activity, and lower cost than human AChE (hAChE). […] To determine the degree of displacement (% displacement) of propidium from the PAS of AChE, EeAChE (final concentration, 7 μM) was incubated with the test compound at a concentration of 20 μM in 1 mM Tris-HCl buffer pH 8.0, 25 °C, for 15 min. Then, propidium iodide solution (final concentration, 8 μM) was added, the samples were incubated for 15 min, and the fluorescence spectrum (530 nm (excitation) and 600 nm (emission)) was taken. […] The blank contained propidium iodide of the same concentration in 1 mM Tris-HCl buffer, pH 8.0 at 25 °C. The measurements were carried out in triplicate on a FLUOStar Optima microplate reader (LabTech, Ortenberg, Germany), and the results were calculated by the following formula:% Displacement = 100 − (IFAChE + Propidium + inhibitor / IFAChE + Propidium) × 100 (1) where IFAChE + Propidium is the fluorescence intensity of the propidium associated with AChE in the absence of the test compound (taken as 100%), and IFAChE + Propidium + inhibitor is the fluorescence intensity of the propidium associated with AChE in the presence of the test compound.
# [4] = compound 20 μM, mean ± SEM, n = 3, n.a. = not active
# T2 sequence (P81908 whole entry): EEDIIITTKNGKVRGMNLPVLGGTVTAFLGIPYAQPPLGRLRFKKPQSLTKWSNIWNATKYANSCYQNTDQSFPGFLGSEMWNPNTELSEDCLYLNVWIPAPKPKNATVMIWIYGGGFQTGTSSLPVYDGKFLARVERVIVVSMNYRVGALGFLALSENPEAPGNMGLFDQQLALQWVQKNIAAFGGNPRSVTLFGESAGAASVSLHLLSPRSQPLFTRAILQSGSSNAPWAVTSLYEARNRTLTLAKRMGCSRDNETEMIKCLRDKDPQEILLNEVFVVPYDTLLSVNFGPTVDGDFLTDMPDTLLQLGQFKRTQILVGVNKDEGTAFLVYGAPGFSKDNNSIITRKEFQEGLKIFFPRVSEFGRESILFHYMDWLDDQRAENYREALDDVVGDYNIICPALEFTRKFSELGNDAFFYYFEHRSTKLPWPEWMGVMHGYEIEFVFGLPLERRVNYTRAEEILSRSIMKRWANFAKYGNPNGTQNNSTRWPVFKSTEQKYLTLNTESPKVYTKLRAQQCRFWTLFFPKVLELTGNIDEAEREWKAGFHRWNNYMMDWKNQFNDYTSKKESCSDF
# T1 sequence (P22303 32-617 isoform P22303-2 limits assumed): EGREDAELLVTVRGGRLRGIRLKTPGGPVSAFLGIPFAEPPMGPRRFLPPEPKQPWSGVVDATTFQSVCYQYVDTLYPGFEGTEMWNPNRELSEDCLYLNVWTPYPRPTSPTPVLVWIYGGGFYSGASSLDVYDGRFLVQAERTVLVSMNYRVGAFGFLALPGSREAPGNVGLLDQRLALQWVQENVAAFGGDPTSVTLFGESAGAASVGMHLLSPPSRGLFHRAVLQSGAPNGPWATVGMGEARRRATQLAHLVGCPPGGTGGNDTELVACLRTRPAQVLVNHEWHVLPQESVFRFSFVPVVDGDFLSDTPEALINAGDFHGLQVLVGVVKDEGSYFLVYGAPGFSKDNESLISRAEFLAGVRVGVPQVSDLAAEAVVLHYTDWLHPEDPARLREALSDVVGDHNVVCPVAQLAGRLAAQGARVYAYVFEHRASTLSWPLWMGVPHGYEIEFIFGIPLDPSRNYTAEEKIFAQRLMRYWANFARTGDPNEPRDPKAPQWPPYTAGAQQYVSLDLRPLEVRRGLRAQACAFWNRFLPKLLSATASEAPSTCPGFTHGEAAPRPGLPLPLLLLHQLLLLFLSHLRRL
# T3 sequence (O42275 24-633): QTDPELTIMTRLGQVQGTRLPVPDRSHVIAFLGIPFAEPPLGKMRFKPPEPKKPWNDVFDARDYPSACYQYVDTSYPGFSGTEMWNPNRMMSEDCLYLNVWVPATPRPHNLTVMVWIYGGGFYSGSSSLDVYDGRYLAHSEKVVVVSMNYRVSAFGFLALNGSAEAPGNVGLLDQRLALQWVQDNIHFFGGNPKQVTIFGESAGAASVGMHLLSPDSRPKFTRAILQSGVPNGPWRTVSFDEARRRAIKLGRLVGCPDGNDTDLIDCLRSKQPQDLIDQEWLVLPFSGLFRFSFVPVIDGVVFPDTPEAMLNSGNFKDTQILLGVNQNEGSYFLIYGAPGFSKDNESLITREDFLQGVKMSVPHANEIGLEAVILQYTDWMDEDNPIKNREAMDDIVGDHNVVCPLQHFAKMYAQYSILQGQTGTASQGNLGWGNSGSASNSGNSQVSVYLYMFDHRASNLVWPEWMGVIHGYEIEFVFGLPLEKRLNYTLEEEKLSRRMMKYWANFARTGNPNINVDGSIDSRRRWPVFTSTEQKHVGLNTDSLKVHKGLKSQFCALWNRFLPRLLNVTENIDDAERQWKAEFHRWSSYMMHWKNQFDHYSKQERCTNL
SMILES,"ABTS•+-scavenging activity, TEAC [1]",IC50 [1] [µM],inhibition at 20 µM (Human erythrocyte AChE) [%],IC50 (equine serum BChE),"FRAP (Fe3+-reducing activity), TE [2]","IC50 (Human erythrocyte AChE; mean ± SEM, n = 3)","Inhibitory activity against CES, % inhibition at 20 μM (porcine liver CES) [%]","Metal-chelating ability for Cu2+, Fe2+ and Zn2+ [3]",inhibition at 20 µM (EeAChE PAS) [%],inhibition at 20 µM (Human erythrocyte AChE; [4]) [%],inhibition at 20 µM (equine serum BChE) [%]
"CCCCCCN/C(C)=C(\N=N\c1ccc(C)cc1)C(C)=O [2a, (3Z)-4-(Hexylamino)-3-[(E)-(4-methylphenyl)diazenyl]pent-3-en-2-one]",0.94 ± 0.03,20.3 ± 1.6,22.9 ± 1.2,18.1 ± 0.8 µM,0.57 ± 0.02,,,,,,
C/C(NCCCCNc1c2c(nc3ccccc13)CCCC2)=C(/N=N/c1ccc(C)cc1)C(=O)C(F)(F)F [8a],1.13 ± 0.05,17.7 ± 1.3,,0.246 ± 0.016 µM,0.06 ± 0.01,1.69 ± 0.05 µM,28.6 ± 4.0,metal-chelating ability,13.7 ± 1.2,,
"Cc1c(C)c2c(c(C)c1O)CCC(C)(C(=O)O)O2 (stereo not shown) [Trolox, 6-hydroxy-2,5,7,8-tetramethylchroman-2-carboxylic acid, reference compound]",1.0,19.7 ± 0.8,,,1.0,,,,,,
C/C(NCCCCCCCCNc1c2c(nc3ccccc13)CCCC2)=C(/N=N/c1ccc(C)cc1)C(=O)C(F)(F)F [8c],0.95 ± 0.03,19.4 ± 1.3,,0.0985 ± 0.0013 µM,0.12 ± 0.01,0.24 µM and 0.241 µM,12.2 ± 1.7,,16.2 ± 1.4,,
C/C(NCCCCCCNc1c2c(nc3ccccc13)CCCC2)=C(/N=N/c1ccc(C)cc1)C(=O)C(F)(F)F [8b],1.00 ± 0.04,17.9 ± 0.6,,0.125 ± 0.006 µM,0.11 ± 0.03,0.28 µM and 0.276 µM,19.9 ± 2.9,,14.4 ± 1.3,,
C/C(NCCCCCCNc1c2c(nc3ccccc13)CCCC2)=C(/N=N/c1ccc(C)cc1)C(=O)c1ccccc1 [7b],0.91 ± 0.03,21.8 ± 1.6,,0.047 ± 0.0038 µM,0.51 ± 0.06,0.38 ± 0.003 µM,33.2 ± 1.7,,15.5 ± 1.3,,
C/C(NCCCCCCCCNc1c2c(nc3ccccc13)CCCC2)=C(/N=N/c1ccc(C)cc1)C(=O)c1ccccc1 [7c],0.92 ± 0.03,21.8 ± 1.6,,0.0745 ± 0.006 µM,0.58 ± 0.03,0.25 µM and 0.249 µM,23.4 ± 2.2,,14.1 ± 1.1,,
"CCCCCCN/C(C)=C(\N=Nc1ccc(C)cc1)C(=O)c1ccccc1 [2b, (3Z)-3-(Hexylamino)-2-[(4-methylphenyl)diazenyl]-1-phenylbut-2-en-1-one]",0.98 ± 0.03,18.9 ± 1.2,,,0.52 ± 0.02,,,,,12.5 ± 0.6,25 ± 2
CC(=O)C(/N=N/c1ccc(C)cc1)=C(\C)NCCCCCCCCNc1c2c(nc3ccccc13)CCCC2 [6c],0.80 ± 0.03,27.5 ± 1.6,,0.054 µM and 0.0543 µM,0.49 ± 0.05,0.27 µM and 0.272 µM,30.1 ± 1.2,,17.8 ± 1.4,,
"O=C1O[C@H]([C@@H](O)CO)C(O)=C1O [Ascorbic acid, ascorbic acid, reference compound]",0.96 ± 0.02,22.6 ± 1.3,,,1.23 ± 0.11,,,,,,
"CCCCCCN/C(C)=C(\N=N\c1ccc(C)cc1)C(=O)C(F)(F)F [2c, (3Z)-4-(Hexylamino)-3-[(E)-(4-methylphenyl)diazenyl]-1,1,1-trifluoropent-3-en-2-one]",1.00 ± 0.04,19.9 ± 1.4,,,not active,,,,,14.7 ± 3.2,35.3 ± 2.7
